By IC50 is commonly meant the concentration that gives 50% inhibition.

For this assay, the system named is Murine L929 cells. Put plainly: Necroptosis inhibition assay in L929 cells (mTNFα + zVAD, Sytox Green). The note with it: Mus musculus, 10 ng/ml mTNFα and 20 μM zVAD, 6 hours, Sytox Green fluorescence. In kind it is cell-based. The protocol: Murine L929 cells (ATCC-CCL-1) were seeded at 10,000 cells/well in a 96-well plate. Cells were treated 48 hours after seeding with 10 ng/ml mTNFα (R&D Systems) and 20 μM zVAD (ChemShuttle) in the presence of different concentrations of compounds ranging from […] to 0.01 μM. Cells treated with 0.1% DMSO or cells treated with TNFα+zVAD were used as control and vehicle respectively.
Assay plates containing cells were incubated for 6 hours at 37° C. and 5% CO2. Necroptosis was assessed using Sytox Green Nucleic Acid Stain (Invitrogen). After incubation, 100 μL of Sytox dye at 2 μM (2×) diluted in HBSS 1× was added in each well and incubated for 15 min at room temperature. Fluorescence (500ex/530em) was recorded using the Cytation 5 microplate reader (Biotek).
Percentage of necroptosis inhibition was calculated as the percent compared to control and vehicle conditions which correspond to 100% and 0% respectively. The half-maximum necroptosis inhibition (IC50) levels were calculated using GraphPad Prism software and are shown in Table 3 (NT represents compound not tested).
Turning to `COc1ccc(Nc2ccnc3ccc(-c4ccc(CN5CCN(C)CC5)cc4F)cc23)cc1OC` [Compound 32, N-(3,4-dimethoxyphenyl)-6-(2-fluoro-4-((4-methylpiperazin-1-yl)methyl)phenyl)quinolin-4-amine], the IC50 is over 10 µM.
The same measure for `CN1CCN(Cc2ccc(-c3ccc4nccc(Nc5ccc(Cl)c(F)c5)c4c3)c(F)c2)CC1` [Compound 33, N-(4-chloro-3-fluorophenyl)-6-(2-fluoro-4-((4-methylpiperazin-1-yl)methyl)phenyl)quinolin-4-amine]: under 10 µM; for `CC(C)(C)OC(=O)N1CCN(Cc2ccc(-c3ccc4nccc(Nc5ccc6scnc6c5)c4c3)c(F)c2)CC1` [Compound 38, tert-butyl 4-(4-(4-(benzo[d]thiazol-5-ylamino)quinolin-6-yl)-3-fluorobenzyl)piperazine-1-carboxylate]: under 10 µM.
On to `N#Cc1cc(-c2ccc3nccc(Nc4ccc5scnc5c4)c3c2)ccc1N1CCCC1` [Compound 39, 5-(4-(benzo[d]thiazol-5-ylamino)quinolin-6-yl)-2-(pyrrolidin-1-yl)benzonitrile], for which the IC50 is over 10 µM.
The same measure for `Fc1cc(CN2CCC(C(F)(F)F)CC2)ccc1-c1ccc2nccc(Nc3ccc4scnc4c3)c2c1` [Compound 42, N-(6-(2-fluoro-4-((4-(trifluoromethyl)piperidin-1-yl)methyl)phenyl)quinolin-4-yl)benzo[d]thiazol-5-amine]: under 10 µM; for `c1cc(Nc2ccc3scnc3c2)c2cc(-c3ccc(OCCN4CCCCC4)cc3)ccc2n1` [Compound 44, N-(6-(4-(2-(piperidin-1-yl)ethoxy)phenyl)quinolin-4-yl)benzo[d]thiazol-5-amine]: under 10 µM; for `Fc1ccc(CN2CCCCC2)cc1-c1ccc2nccc(Nc3ccc4scnc4c3)c2c1` [Compound 55, N-(6-(2-fluoro-5-(piperidin-1-ylmethyl)phenyl)quinolin-4-yl)benzo[d]thiazol-5-amine]: under 10 µM.
The same measure for `Fc1ccc(CN2CCCCC2)cc1-c1ccc2c(Nc3ccc4scnc4c3)ccnc2c1` [Compound 56, N-(7-(2-fluoro-5-(piperidin-1-ylmethyl)phenyl)quinolin-4-yl)benzo[d]thiazol-5-amine]: over 10 µM.
Consider `CC(C)(C)OC(=O)N1C2CCC1CN(Cc1ccc(-c3ccc4nccc(Nc5ccc6scnc6c5)c4c3)c(F)c1)C2` [Compound 57, tert-butyl 3-(4-(4-(benzo[d]thiazol-5-ylamino)quinolin-6-yl)-3-fluorobenzyl)-3,8-diazabicyclo[3.2.1]octane-8-carboxylate], for which the IC50 is over 10 µM.
Take `CC(C)(C)OC(=O)N1C2CCC1CN(Cc1ccc(-c3ccc4c(Nc5ccc6scnc6c5)ccnc4c3)c(F)c1)C2` [Compound 58, tert-butyl 3-(4-(4-(benzo[d]thiazol-5-ylamino)quinolin-7-yl)-3-fluorobenzyl)-3,8-diazabicyclo[3.2.1]octane-8-carboxylate]: the IC50 was under 10 µM.
The same measure for `O=C(CO)N1CCC(c2ccc(-c3ccc4nccc(Nc5ccc6scnc6c5)c4c3)cc2)CC1` [Compound 239, 1-(4-(4-(4-(benzo[d]thiazol-5-ylamino)quinolin-6-yl)phenyl)piperidin-1-yl)-2-hydroxyethan-1-one]: under 1 µM.
The same measure for `c1cc(Nc2ccc3scnc3c2)c2cc(-c3ccc(C4CCNCC4)cc3)ccc2n1` [Compound 240, N-(6-(4-(piperidin-4-yl)phenyl)quinolin-4-yl)benzo[d]thiazol-5-amine]: over 1 µM.
With `O=C(c1ccc(-c2ccc3nccc(Nc4ccc5scnc5c4)c3c2)c(F)c1)N1CCCC1` [Compound 241, (4-(4-(benzo[d]thiazol-5-ylamino)quinolin-6-yl)-3-fluorophenyl)(pyrrolidin-1-yl)methanone], the IC50 was 0.388 µM.
The same measure for `O=C(c1ccc(-c2ccc3c(Nc4ccc5scnc5c4)ccnc3c2)c(F)c1)N1CCCC1` [Compound 242, (4-(4-(benzo[d]thiazol-5-ylamino)quinolin-7-yl)-3-fluorophenyl)(pyrrolidin-1-yl)methanone]: under 1 µM; for `O=C(c1ccc(-c2ccc3nccc(Nc4ccc5scnc5c4)c3c2)c(F)c1)N1CCOCC1` [Compound 243, (4-(4-(benzo[d]thiazol-5-ylamino)quinolin-6-yl)-3-fluorophenyl)(morpholino)methanone]: under 1 µM; for `CN(C)C(=O)c1ccc(-c2ccc3nccc(Nc4ccc5scnc5c4)c3c2)c(F)c1` [Compound 245, 4-(4-(benzo[d]thiazol-5-ylamino)quinolin-6-yl)-3-fluoro-N,N-dimethylbenzamide]: under 1 µM.
The same measure for `CN(C)C(=O)c1ccc(-c2ccc3c(Nc4ccc5scnc5c4)ccnc3c2)c(F)c1` [Compound 246, 4-(4-(benzo[d]thiazol-5-ylamino)quinolin-7-yl)-3-fluoro-N,N-dimethylbenzamide]: under 1 µM; for `CC1CCCCN1C(=O)c1ccc(-c2ccc3nccc(Nc4ccc5scnc5c4)c3c2)c(F)c1` (stereo not drawn) [Compound 247, (4-(4-(benzo[d]thiazol-5-ylamino)quinolin-6-yl)-3-fluorophenyl)(2-methylpiperidin-1-yl)methanone]: over 1 µM; for `CC1CCCCN1C(=O)c1ccc(-c2ccc3c(Nc4ccc5scnc5c4)ccnc3c2)c(F)c1` (stereo not drawn) [Compound 248, (4-(4-(benzo[d]thiazol-5-ylamino)quinolin-7-yl)-3-fluorophenyl)(2-methylpiperidin-1-yl)methanone]: under 1 µM.
In the case of `O=C1CN(Cc2ccc(-c3ccc4nccc(Nc5ccc6sccc6c5)c4c3)c(F)c2)CCN1` [Compound 256, 4-(4-(4-(benzo[b]thiophen-5-ylamino)quinolin-6-yl)-3-fluorobenzyl)piperazin-2-one], the concentration for half-maximal inhibition (IC50) is over 10 µM.
The same measure for `O=C1CN(Cc2ccc(-c3ccc4nccc(Nc5ccc6[nH]ncc6c5)c4c3)c(F)c2)CCN1` [Compound 271, 4-(4-(4-(1H-indazol-5-ylamino)quinolin-6-yl)-3-fluorobenzyl)piperazin-2-one]: over 10 µM; for `O=C1CN(Cc2ccc(-c3ccc4nccc(Nc5ccc6occc6c5)c4c3)c(F)c2)CCN1` [Compound 287, 4-(4-(4-(benzofuran-5-ylamino)quinolin-6-yl)-3-fluorobenzyl)piperazin-2-one]: over 10 µM.
The same measure for `Cn1ncc2cc(Nc3ccnc4ccc(-c5ccc(CN6CCNC(=O)C6)cc5F)cc34)ccc21` [Compound 288, 4-(3-fluoro-4-(4-(1-methyl-1H-indazol-5-ylamino)quinolin-6-yl)benzyl)piperazin-2-one]: over 10 µM.
The same measure for `O=C1CN(Cc2ccc(-c3ccc4nccc(Nc5ccc6oncc6c5)c4c3)c(F)c2)CCN1` [Compound 289, 4-(4-(4-(benzo[d]isoxazol-5-ylamino)quinolin-6-yl)-3-fluorobenzyl)piperazin-2-one]: over 10 µM; for `O=C(c1ccc(-c2ccc3nccc(Nc4ccc5scnc5c4)c3c2)nc1)N1CC2(CNC2)C1` [Compound 294, (6-(4-(benzo[d]thiazol-5-ylamino)quinolin-6-yl)pyridin-3-yl)(2,6-diazaspiro[3.3]heptan-2-yl)methanone]: over 10 µM.
Consider `O=C(c1ccc(-c2ccc3nccc(Nc4ccc5scnc5c4)c3c2)c(F)c1)N1CC2CNCC2C1` (stereo not drawn) [Compound 298, (4-(4-(benzo[d]thiazol-5-ylamino)quinolin-6-yl)-3-fluorophenyl)(hexahydropyrrolo[3,4-c]pyrrol-2(1H)-yl)methanone], for which the concentration for half-maximal inhibition (IC50) was under 10 µM.
For the compound `O=C(c1ccc(-c2ccc3c(Nc4ccc5scnc5c4)ccnc3c2)c(F)c1)N1CC2CNCC2C1` (stereo not drawn) [Compound 302, (4-(4-(benzo[d]thiazol-5-ylamino)quinolin-7-yl)-3-fluorophenyl)(hexahydropyrrolo[3,4-c]pyrrol-2(1H)-yl)methanone], the IC50 was under 10 µM.
The same measure for `O=C(c1ccc(-c2ccc3nccc(Nc4ccc5scnc5c4)c3c2)c(F)c1)N1C[C@H]2C[C@@H](C1)N2` [Compound 304, (4-(4-(benzo[d]thiazol-5-ylamino)quinolin-6-yl)-3-fluorophenyl)((1R,5S)-3,6-diazabicyclo[3.1.1]heptan-3-yl)methanone]: under 10 µM; for `O=C(c1ccc(-c2ccc3nccc(Nc4ccc5scnc5c4)c3c2)c(F)c1)N1[C@@H]2CNC[C@H]1C2` [Compound 308, (4-(4-(benzo[d]thiazol-5-ylamino)quinolin-6-yl)-3-fluorophenyl)((1R,5S)-3,6-diazabicyclo[3.1.1]heptan-6-yl)methanone]: under 10 µM; for `Fc1cc(OC2CCNCC2)ccc1-c1ccc2c(Nc3ccc4scnc4c3)ccnc2c1` [Compound 309, N-(7-(2-fluoro-4-(piperidin-4-yloxy)phenyl)quinolin-4-yl)benzo[d]thiazol-5-amine]: under 10 µM.
The same measure for `O=C(c1ccc(-c2ccc3c(Nc4ccc5scnc5c4)ccnc3c2)c(F)c1)N1CCC2(CCNC2)CC1` [Compound 314, (4-(4-(benzo[d]thiazol-5-ylamino)quinolin-7-yl)-3-fluorophenyl)(2,8-diazaspiro[4.5]decan-8-yl)methanone]: under 10 µM; for `Fc1cc(CN2CCNCC2)ccc1-c1ccc2nccc(Nc3ccc4sccc4c3)c2c1` [Compound 385, N-(benzo[b]thiophen-5-yl)-6-(2-fluoro-4-(piperazin-1-ylmethyl)phenyl)quinolin-4-amine]: over 10 µM.
The same measure for `Fc1cc(CN2CCNCC2)ccc1-c1ccc2nccc(Nc3ccc4occc4c3)c2c1` [Compound 386, N-(benzofuran-5-yl)-6-(2-fluoro-4-(piperazin-1-ylmethyl)phenyl)quinolin-4-amine]: over 10 µM.

The values above are taken from patent US20250092031A1, “RIPK3 INHIBITORS AND METHODS OF USE” (Momentum Therapeutics, Inc., priority 2023, published 2025).
